US9499547B2 (BAYER INTELLECTUAL PROPERTY GMBH, priority 2011, dated 2016)
Counter-ions that a name gives are not always drawn.

Tests used:
human full-length MKNK1 [1] = molecular target: T1, human full-length MKNK1 (Homo sapiens (Human), UniProt Q9BUB5, T344D); experiment: MKNK1 kinase assay (MKNK1 TR-FRET assay); assay type: biochemical; details: 10 μM ATP final conc.; 15 min preincubation with enzyme
Description: MKNK1-inhibitory activity of compounds of the present invention was quantified employing the MKNK1 TR-FRET assay as described in the following paragraphs.
As substrate for the kinase reaction the biotinylated peptide biotin-Ahx-[…] (C-terminus in amide form) was used which can be purchased e.g. form the company Biosyntan (Berlin-Buch, Germany).
(§1) For the assay 50 nL of a 100 fold concentrated solution of the test compound in DMSO was pipetted into a black low volume 384 well microtiter plate (Greiner Bio-One, Frickenhausen, Germany), 2 μL of a solution of MKNK1 in aqueous assay buffer [50 mM HEPES pH 7.5, 5 mM magnesium chloride, 1.0 mM dithiothreitol, 0.005% (v/v) Nonidet-P40 (Sigma)] was added and the mixture was incubated for 15 min at 22° C. to allow pre-binding of the test compounds to the enzyme before the start of the kinase reaction. Then the kinase reaction was started by the addition of 3 μL of a solution of adenosine-tri-phosphate (ATP, 16.7 μM=>final conc. in the 5 μL assay volume is 10 μM) and substrate (0.1 μM=>final conc. in the 5 μL assay volume is 0.06 μM) in assay buffer and the resulting mixture was incubated for a reaction time of 45 min at 22° C. The concentration of MKNK1 was adjusted depending of the activity of the enzyme lot and was chosen appropriate to have the assay in the linear range, typical concentrations were in the range of 0.05 μg/ml. The reaction was stopped by the addition of 5 μL of a solution of TR-FRET detection reagents (5 nM streptavidine-XL665 [Cisbio Bioassays, Codolet, France] and 1 nM anti-ribosomal protein S6 (pSer236)-antibody from Invitrogen [#44921G] and 1 nM LANCE EU-W1024 labeled ProteinG [Perkin-Elmer, product no. AD0071]) in an aqueous EDTA-solution (100 mM EDTA, 0.1% (w/v) bovine serum albumin in 50 mM HEPES pH 7.5).
(§2) The resulting mixture was incubated for 1 h at 22° C. to allow the formation of complex between the phosphorylated biotinylated peptide and the detection reagents. Subsequently the amount of phosphorylated substrate was evaluated by measurement of the resonance energy transfer from the Eu-chelate to the streptavidine-XL. Therefore, the fluorescence emissions at 620 nm and 665 nm after excitation at 350 nm were measured in a TR-FRET reader, e.g. a Rubystar (BMG Labtechnologies, Offenburg, Germany) or a Viewlux (Perkin-Elmer). The ratio of the emissions at 665 nm and at […] was taken as the measure for the amount of phosphorylated substrate. The data were normalised (enzyme reaction without inhibitor=0% inhibition, all other assay components but no enzyme=100% inhibition).

human full-length MKNK1 [2] = molecular target: T1, human full-length MKNK1; experiment: MKNK1 kinase high ATP assay (TR-FRET-based); assay type: biochemical; details: 2 mM ATP final conc.; 15 min preincubation with enzyme
Description: MKNK1 Kinase High ATP Assay
MKNK1-inhibitory activity at high ATP of compounds of the present invention after their preincubation with MKNK1 was quantified employing the TR-FRET-based MKNK1 high ATP assay as described in the following paragraphs.
As substrate for the kinase reaction the biotinylated peptide biotin-Ahx-[…] (C-terminus in amide form) was used, which can be purchased e.g. from the company Biosyntan (Berlin-Buch, Germany).
as §1, with “3.3 mM=>final” for “16.7 μM=>final”, “2 mM)” for “10 μM)”, “30” for “45”, “0.003 μg/mL.” for “0.05 μg/ml.”
as §2

T1 sequence (Q9BUB5 other isoform, or with tags, fused parts or gaps T344D): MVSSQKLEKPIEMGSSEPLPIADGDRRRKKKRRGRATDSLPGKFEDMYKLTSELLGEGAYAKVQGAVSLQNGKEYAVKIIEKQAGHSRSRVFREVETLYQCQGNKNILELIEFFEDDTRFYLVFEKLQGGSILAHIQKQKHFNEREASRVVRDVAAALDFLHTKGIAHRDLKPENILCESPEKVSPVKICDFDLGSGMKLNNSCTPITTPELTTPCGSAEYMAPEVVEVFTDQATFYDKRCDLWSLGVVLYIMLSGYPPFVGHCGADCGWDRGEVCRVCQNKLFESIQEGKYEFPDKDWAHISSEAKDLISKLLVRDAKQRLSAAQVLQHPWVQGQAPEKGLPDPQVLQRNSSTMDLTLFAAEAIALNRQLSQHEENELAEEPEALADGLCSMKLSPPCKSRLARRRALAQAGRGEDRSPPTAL

In the case of NCCOc1ccc2ncc(-c3cc4ccccc4o3)n2n1 [Example 12, 2-{[3-(1-Benzofuran-2-yl)imidazo[1,2-b]pyridazin-6-yl]oxy}ethanamine], the IC50 (human full-length MKNK1 [1]) is reported as 10 nM and the IC50 (human full-length MKNK1 [2]) is reported as 27 nM.

In the case of CC(C)(N)CCOc1ccc2ncc(-c3cc4ccccc4o3)n2n1 [Example 14, 4-{[3-(1-Benzofuran-2-yl)imidazo[1,2-b]pyridazin-6-yl]oxy}-2-methylbutan-2-amine], the IC50 (human full-length MKNK1 [1]) is reported as 20 nM and the IC50 (human full-length MKNK1 [2]) is reported as 39 nM.

C[C@H](CN)Oc1ccc2ncc(-c3cc4cc(Cl)ccc4o3)n2n1 [Example 15, (2R)-2-{[3-(5-Chloro-1-benzofuran-2-yl)imidazo[1,2-b]pyridazin-6-yl]oxy}-propan-1-amine] showed an IC50 (human full-length MKNK1 [1]) of 36 nM and an IC50 (human full-length MKNK1 [2]) of 197 nM.

NC[C@H](Oc1ccc2ncc(-c3cc4ccccc4o3)n2n1)c1ccccc1 [Example 16, (2R)-2-{[3-(1-Benzofuran-2-yl)imidazo[1,2-b]pyridazin-6-yl]oxy}-2-phenylethanamine] showed an IC50 (human full-length MKNK1 [1]) of 26 nM and an IC50 (human full-length MKNK1 [2]) of 49 nM.

With N[C@H](COc1ccc2ncc(-c3cc4ccccc4o3)n2n1)c1ccccc1 [Example 17, (1S)-2-{[3-(1-Benzofuran-2-yl)imidazo[1,2-b]pyridazin-6-yl]oxy}-1-phenylethanamine] the IC50 (human full-length MKNK1 [1]) was 6 nM and the IC50 (human full-length MKNK1 [2]) was 10 nM.

Work on N[C@@H](COc1ccc2ncc(-c3cc4ccccc4o3)n2n1)c1ccccc1 [Example 18, (1R)-2-{[3-(1-Benzofuran-2-yl)imidazo[1,2-b]pyridazin-6-yl]oxy}-1-phenylethanamine] yielded an IC50 (human full-length MKNK1 [1]) of 22 nM and an IC50 (human full-length MKNK1 [2]) of 33 nM.

N[C@H](COc1ccc2ncc(-c3cc4cc(Cl)ccc4o3)n2n1)c1ccccc1 [Example 19, (1S)-2-{[3-(5-Chloro-1-benzofuran-2-yl)imidazo[1,2-b]pyridazin-6-yl]oxy}-1-phenylethanamine] showed an IC50 (human full-length MKNK1 [1]) of 25 nM and an IC50 (human full-length MKNK1 [2]) of 111 nM.

With NC[C@H]1C[C@H](Oc2ccc3ncc(-c4cc5ccccc5o4)n3n2)C1 [Example 20, 1-(trans-3-{[3-(1-Benzofuran-2-yl)imidazo[1,2-b]pyridazin-6-yl]oxy}cyclobutyl)-methanamine] the IC50 (human full-length MKNK1 [1]) was 4 nM and the IC50 (human full-length MKNK1 [2]) was 6 nM.

Molecule N[C@H]1C[C@H](COc2ccc3ncc(-c4cc5ccccc5o4)n3n2)C1 [Example 22, trans-3-({[3-(1-Benzofuran-2-yl)imidazo[1,2-b]pyridazin-6-yl]oxy}methyl)cyclobutanamine] has an IC50 (human full-length MKNK1 [1]) of 6 nM and an IC50 (human full-length MKNK1 [2]) of 17 nM.

N[C@H]1CCC[C@@H]1Oc1ccc2ncc(-c3cc4ccccc4o3)n2n1 [Example 24, (1S,2S)-2-{[3-(1-Benzofuran-2-yl)imidazo[1,2-b]pyridazin-6-yl]oxy}cyclopentanamine] showed an IC50 (human full-length MKNK1 [1]) of 10 nM and an IC50 (human full-length MKNK1 [2]) of 19 nM.

N[C@H]1CCC[C@H]1Oc1ccc2ncc(-c3cc4ccccc4o3)n2n1 [Example 25, (1S,2R)-2-{[3-(1-Benzofuran-2-yl)imidazo[1,2-b]pyridazin-6-yl]oxy}cyclopentanamine salt with formic acid] was tested, and the IC50 (human full-length MKNK1 [1]) was 7 nM and the IC50 (human full-length MKNK1 [2]) was 22 nM.

NCC(Cc1ccccc1)Oc1ccc2ncc(-c3cc4ccccc4o3)n2n1 (centres unmarked) [Example 26, 2-{[3-(1-Benzofuran-2-yl)imidazo[1,2-b]pyridazin-6-yl]oxy}-3-phenylpropan-1-amine salt with formic acid] showed an IC50 (human full-length MKNK1 [1]) of 15 nM and an IC50 (human full-length MKNK1 [2]) of 25 nM.

Work on CC(C)(N)COc1ccc2ncc(-c3cc4ccccc4o3)n2n1 [Example 29, 1-{[3-(1-Benzofuran-2-yl)imidazo[1,2-b]pyridazin-6-yl]oxy}-2-methylpropan-2-amine] yielded an IC50 (human full-length MKNK1 [1]) of 17 nM and an IC50 (human full-length MKNK1 [2]) of 59 nM.

NCC(Oc1ccc2ncc(-c3cc4ccccc4o3)n2n1)C1CC1 (centres unmarked) [Example 30, 2-{[3-(1-Benzofuran-2-yl)imidazo[1,2-b]pyridazin-6-yl]oxy}-2-cyclopropylethanamine] was tested, and the IC50 (human full-length MKNK1 [1]) was 41 nM and the IC50 (human full-length MKNK1 [2]) was 75 nM.

Molecule NCC(CN)Oc1ccc2ncc(-c3cc4ccccc4o3)n2n1 [Example 34, 2-{[3-(1-Benzofuran-2-yl)imidazo[1,2-b]pyridazin-6-yl]oxy}propane-1,3-diamine] has an IC50 (human full-length MKNK1 [1]) of 39 nM and an IC50 (human full-length MKNK1 [2]) of 92 nM.

NCC(Oc1ccc2ncc(-c3cc4ccccc4o3)n2n1)C1CCOC1 (centres unmarked) [Example 35, 2-{[3-(1-Benzofuran-2-yl)imidazo[1,2-b]pyridazin-6-yl]oxy}-2-(tetrahydrofuran-3-yl)ethanamine] showed an IC50 (human full-length MKNK1 [1]) of 32 nM and an IC50 (human full-length MKNK1 [2]) of 52 nM.

N[C@H]1C[C@H](Oc2ccc3ncc(-c4cc5c(F)cccc5o4)n3n2)C1 [Example 36, trans-3-{[3-(4-Fluoro-1-benzofuran-2-yl)imidazo[1,2-b]pyridazin-6-yl]oxy}-cyclobutanamine] gave an IC50 (human full-length MKNK1 [1]) of 1 nM and an IC50 (human full-length MKNK1 [2]) of 2 nM.

N[C@H]1C[C@H](Oc2ccc3ncc(-c4cc5cc(Cl)ccc5o4)n3n2)C1 [Example 37, trans-3-{[3-(5-Chloro-1-benzofuran-2-yl)imidazo[1,2-b]pyridazin-6-yl]oxy}-cyclobutanamine] was tested, and the IC50 (human full-length MKNK1 [1]) was 4 nM and the IC50 (human full-length MKNK1 [2]) was 5 nM.

COc1ccc2oc(-c3cnc4ccc(O[C@H]5C[C@H](N)C5)nn34)cc2c1 [Example 38, trans-3-{[3-(5-Methoxy-1-benzofuran-2-yl)imidazo[1,2-b]pyridazin-6-yl]oxy}-cyclobutanamine] gave an IC50 (human full-length MKNK1 [1]) of 3 nM and an IC50 (human full-length MKNK1 [2]) of 6 nM.

N[C@H]1C[C@H](Oc2ccc3ncc(-c4cc5cc(F)ccc5o4)n3n2)C1 [Example 39, trans-3-{[3-(5-Fluoro-1-benzofuran-2-yl)imidazo[1,2-b]pyridazin-6-yl]oxy}-cyclobutanamine] was tested, and the IC50 (human full-length MKNK1 [1]) was 3 nM and the IC50 (human full-length MKNK1 [2]) was 6 nM.

Molecule CC(CN)COc1ccc2ncc(-c3cc4ccccc4o3)n2n1 (centres unmarked) [Example 40, 3-{[3-(1-Benzofuran-2-yl)imidazo[1,2-b]pyridazin-6-yl]oxy}-2-methylpropan-1-amine] has an IC50 (human full-length MKNK1 [1]) of 9 nM and an IC50 (human full-length MKNK1 [2]) of 18 nM.

COc1cccc2oc(-c3cnc4ccc(OCC(N)C5CC5)nn34)cc12 (centres unmarked) [Example 41, 1-Cyclopropyl-2-{[3-(4-methoxy-1-benzofuran-2-yl)imidazo[1,2-b]pyridazin-6-yl]oxy}ethanamine] showed an IC50 (human full-length MKNK1 [1]) of 12 nM and an IC50 (human full-length MKNK1 [2]) of 27 nM.

Molecule C[C@@H](N)COc1ccc2ncc(-c3cc4ccccc4o3)n2n1 [Example 42, (2R)-1-{[3-(1-Benzofuran-2-yl)imidazo[1,2-b]pyridazin-6-yl]oxy}propan-2-amine] has an IC50 (human full-length MKNK1 [1]) of 15 nM and an IC50 (human full-length MKNK1 [2]) of 43 nM.

C[C@@H](N)COc1ccc2ncc(-c3cc4cc(Cl)ccc4o3)n2n1 [Example 43, (2R)-1-{[3-(5-Chloro-1-benzofuran-2-yl)imidazo[1,2-b]pyridazin-6-yl]oxy}-propan-2-amine] gave an IC50 (human full-length MKNK1 [1]) of 33 nM and an IC50 (human full-length MKNK1 [2]) of 62 nM.

Molecule NCC1(COc2ccc3ncc(-c4cc5ccccc5o4)n3n2)COC1 [Example 44, 1-[3-({[3-(1-Benzofuran-2-yl)imidazo[1,2-b]pyridazin-6-yl]oxy}methyl)oxetan-3-yl]methanamine] has an IC50 (human full-length MKNK1 [1]) of 52 nM and an IC50 (human full-length MKNK1 [2]) of 63 nM.
